Patent US20100267561A1, “HERBICIDAL PYRIDAZINONE DERIVATIVES” (priority 2007, published 2010)

Key:
Type in all cases: in vivo
corn (Zea mays) = experiment: Test A pre-/postemergence plant response
How it was run: (§1)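 Ratings are visual, 0–100, where 100 means complete control and 0 no effect, taken roughly 10 days after treatment by comparison with untreated controls. Formulation: non-phytotoxic solvent mixture with surfactant.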

[1] = test system: giant foxtail (Setaria faberi); experiment: Test A pre-/postemergence plant response
How it was run: as §1

[2] = test system: Italian ryegrass (Lolium multiflorum); experiment: Test B pre-/postemergence plant response
Source text: (§2) Seeds of plant species selected from blackgrass (Alopecurus myosuroides), downy bromegrass (Bromus tectorum), green foxtail (Setaria viridis), Italian ryegrass (Lolium multiflorum), wheat (Triticum aestivum), wild oat (Avena fatua), catchweed bedstraw (Galium aparine), bermudagrass (Cynodon dactylon), surinam grass (Brachiaria decumbens), cocklebur (Xanthium strumarium), corn (Zea mays), large crabgrass (Digitaria sanguinalis), woolly cupgrass (Eriochloa villosa), giant foxtail (Setaria faberii), goosegrass (Eleusine indica), johnsongrass (Sorghum halepense), kochia (Kochia scoparia), lambsquarters (Chenopodium album), morningglory (Ipomoea coccinea), eastern black (E.B.) nightshade (Solanum ptycanthum), yellow nutsedge (Cyperus esculentus), pigweed (Amaranthus retroflexus), common ragweed (Ambrosia elation), Russian thistle (Salsola iberica), soybean (Glycine max), common (oilseed) sunflower (Helianthus annuus), and velvetleaf (Abutilon theophrasti) were planted and treated preemergence with test chemicals formulated in a non-phytotoxic solvent mixture which included a surfactant.
(§3) At the same time, plants selected from these crop and weed species and also winter barley (Hordeum vulgare), canarygrass (Phalaris minor), chickweed (Stellaria media) and windgrass (Apera spica-venti) were treated with postemergence applications of some of the test chemicals formulated in the same manner. Plants ranged in height from 2 to 18 cm (1- to 4-leaf stage) for postemergence treatments.
(§4) Plant species in the flooded paddy test consisted of rice (Oryza sativa), umbrella sedge (Cyperus difformis), ducksalad (Heteranthera limosa) and barnyardgrass (Echinochloa crus-galli) grown to the 2-leaf stage for testing. At time of treatment, test pots were flooded to 3 cm above the soil surface, treated by application of test compounds directly to the paddy water, and then maintained at that water depth for the duration of the test. Treated plants and controls were maintained in a greenhouse for 13 to 15 days, after which time all species were compared to controls and visually evaluated. Plant response ratings, summarized in Table B, are based on a scale of 0 to 100 where 0 is no effect and 100 is complete control. A dash (-) response means no test result.

[3] = test system: bermudagrass (Cynodon dactylon); experiment: Test B pre-/postemergence plant response; conditions: for Bermudagrass plant response rating: preemergence, 0-100 scale
Source text: as §2, §3, §4

[4] = test system: common (oilseed) sunflower (Helianthus annuus); experiment: Test B pre-/postemergence plant response; conditions: Preemergence
Source text: as §2, §3, §4

[5] = test system: eastern black (E.B.) nightshade (Solanum ptycanthum); experiment: Test B pre-/postemergence plant response; conditions: Preemergence
Source text: as §2, §3, §4

[6] = test system: johnsongrass (Sorghum halepense); experiment: Test B pre-/postemergence plant response
Source text: as §2, §3, §4

kochia (Kochia scoparia) = experiment: Test B pre-/postemergence plant response
Source text: as §2, §3, §4

soybean (Glycine max) = experiment: Test B pre-/postemergence plant response
Source text: as §2, §3, §4

[7] = test system: velvetleaf (Abutilon theophrasti); experiment: Test B pre-/postemergence plant response
Source text: as §2, §3, §4

[8] = test system: wheat (Triticum aestivum); experiment: Test B pre-/postemergence plant response
Source text: as §2, §3, §4

[9] = test system: yellow nutsedge (Cyperus esculentus); experiment: Test B pre-/postemergence plant response
Source text: as §2, §3, §4

[10] = Postemergence, 125 g ai/ha, 0 to 100 scale, 0 no effect, 100 complete control
[11] = Postemergence, 500 g ai/ha, 0 to 100 scale, 0 no effect, 100 complete control
[12] = Preemergence, 125 g ai/ha, 0 to 100 scale (0 no effect, 100 complete control)
[13] = Preemergence, 500 g ai/ha, 0 to 100 scale (0 no effect, 100 complete control)
[14] = Postemergence, 31 g ai/ha, scale 0 to 100, 0 no effect, 100 complete control
[15] = Postemergence, 62 g ai/ha, scale 0 to 100
[16] = Postemergence, 125 g ai/ha, scale 0 to 100
[17] = Postemergence, 250 g ai/ha, scale 0 to 100
[18] = Preemergence, 31 g ai/ha, 0 to 100 scale, 0 no effect, 100 complete control
[19] = Preemergence, 62 g ai/ha, scale 0 to 100
[20] = Preemergence, 125 g ai/ha, scale 0 to 100
[21] = Preemergence, 250 g ai/ha, scale 0 to 100
[22] = 31 g ai/ha, 0 to 100 scale, 0 no effect, 100 complete control

Cc1nn(C)c(=O)c(-n2nc(-c3ccc(Cl)cc3)cc2C)c1O [Compound 15]
70: Plant response rating, Corn (corn (Zea mays); [10]) | Plant response rating, Ryegrass, Italian [2, 18] | Plant response rating, Bermudagrass [3, 14] | Plant response rating, Johnsongrass [6, 14] | Plant response rating, Johnsongrass [6, 18] | Plant response rating, Wheat [8, 16]
60: Plant response rating, Sunflower ([4]; 250 g ai/ha, scale 0 to 100) | Plant response rating, Wheat [8, 15] | Plant response rating, Wheat [8, 19] | Plant response rating, Wheat [8, 20]
100: Plant response rating, Foxtail, Giant [1, 11] | Plant response rating, Foxtail, Giant [1, 13] | Plant response rating, Ryegrass, Italian [2, 15] | Plant response rating, Ryegrass, Italian [2, 16] | Plant response rating, Ryegrass, Italian [2, 17] | Plant response rating, Ryegrass, Italian [2, 19] | Plant response rating, Ryegrass, Italian [2, 20] | Plant response rating, Ryegrass, Italian [2, 21] | Bermudagrass plant response rating ([3]; 250 g ai/ha) | Plant response rating, Bermudagrass [3, 15] | Plant response rating, Bermudagrass [3, 16] | Plant response rating, Bermudagrass [3, 17] | Plant response rating, Bermudagrass [3, 20] | Plant response rating, Johnsongrass [6, 16] | Plant response rating, Johnsongrass [6, 17] | Plant response rating, Johnsongrass [6, 21]
98: Plant response rating, Ryegrass, Italian [2, 14] | Plant response rating, Bermudagrass [3, 18] | Plant response rating, Bermudagrass [3, 19] | Plant response rating, Johnsongrass [6, 20]
5: Plant response rating, Wheat [8, 14]
80: Plant response rating, Johnsongrass [6, 15] | Plant response rating, Wheat [8, 21]
85: Plant response rating, Wheat [8, 17]
0: Plant response rating, Sunflower [4, 22] | Plant response rating, Sunflower ([4]; 62 g ai/ha, scale 0 to 100) | Plant response rating, Nightshade, E. B. [5, 22] | Plant response rating, Nightshade, E. B. ([5]; 62 g ai/ha, scale 0 to 100) | Plant response rating, Nightshade, E. B. ([5]; 125 g ai/ha, scale 0 to 100) | Plant response rating, Nightshade, E. B. ([5]; 250 g ai/ha, scale 0 to 100) | Plant response rating, Kochia (kochia (Kochia scoparia); [14]) | Plant response rating, Kochia (kochia (Kochia scoparia); [15]) | Plant response rating, Kochia (kochia (Kochia scoparia); [16]) | Plant response rating, Kochia (kochia (Kochia scoparia); [17]) | Plant response rating, Kochia (kochia (Kochia scoparia); [19]) | Plant response rating, Soybean (soybean (Glycine max); [14]) | Plant response rating, Soybean (soybean (Glycine max); [15]) | Plant response rating, Soybean (soybean (Glycine max); [16]) | Plant response rating, Soybean (soybean (Glycine max); [17]) | Plant response rating, Soybean (soybean (Glycine max); [18]) | Plant response rating, Soybean (soybean (Glycine max); [19]) | Plant response rating, Velvetleaf [7, 14] | Plant response rating, Velvetleaf [7, 15] | Plant response rating, Velvetleaf [7, 16] | Plant response rating, Velvetleaf [7, 17] | Plant response rating, Velvetleaf [7, 18] | Plant response rating, Velvetleaf [7, 19] | Plant response rating, Velvetleaf [7, 21] | Plant response rating, Wheat [8, 18] | Plant response rating, Nutsedge, Yellow [9, 15] | Plant response rating, Nutsedge, Yellow [9, 16] | Plant response rating, Nutsedge, Yellow [9, 17] | Plant response rating, Nutsedge, Yellow [9, 18] | Plant response rating, Nutsedge, Yellow [9, 19] | Plant response rating, Nutsedge, Yellow [9, 21]
90: Plant response rating, Corn (corn (Zea mays); [11]) | Plant response rating, Corn (corn (Zea mays); [13]) | Plant response rating, Foxtail, Giant [1, 10] | Plant response rating, Foxtail, Giant [1, 12]
50: Plant response rating, Corn (corn (Zea mays); [12])
30: Plant response rating, Soybean (soybean (Glycine max); [21])
95: Plant response rating, Johnsongrass [6, 19]

CCc1cc(-c2ccc(C(F)(F)F)cc2)nn1-c1c(O)c(C)nn(C)c1=O [Compound 16]
25: Plant response rating, Johnsongrass [6, 18]
20: Plant response rating, Nutsedge, Yellow [9, 21]
95: Plant response rating, Wheat [8, 14]
15: Plant response rating, Wheat [8, 18]
90: Plant response rating, Corn (corn (Zea mays); [10]) | Plant response rating, Corn (corn (Zea mays); [13]) | Plant response rating, Wheat [8, 19]
0: Plant response rating, Bermudagrass [3, 18] | Plant response rating, Bermudagrass [3, 19] | Plant response rating, Sunflower [4, 22] | Plant response rating, Sunflower ([4]; 62 g ai/ha, scale 0 to 100) | Plant response rating, Sunflower ([4]; 125 g ai/ha, scale 0 to 100) | Plant response rating, Sunflower ([4]; 250 g ai/ha, scale 0 to 100) | Plant response rating, Nightshade, E. B. [5, 22] | Plant response rating, Nightshade, E. B. ([5]; 62 g ai/ha, scale 0 to 100) | Plant response rating, Nightshade, E. B. ([5]; 125 g ai/ha, scale 0 to 100) | Plant response rating, Nightshade, E. B. ([5]; 250 g ai/ha, scale 0 to 100) | Plant response rating, Kochia (kochia (Kochia scoparia); [14]) | Plant response rating, Soybean (soybean (Glycine max); [14]) | Plant response rating, Soybean (soybean (Glycine max); [15]) | Plant response rating, Soybean (soybean (Glycine max); [16]) | Plant response rating, Soybean (soybean (Glycine max); [17]) | Plant response rating, Soybean (soybean (Glycine max); [21]) | Plant response rating, Velvetleaf [7, 14] | Plant response rating, Velvetleaf [7, 15] | Plant response rating, Velvetleaf [7, 16] | Plant response rating, Velvetleaf [7, 17] | Plant response rating, Velvetleaf [7, 18] | Plant response rating, Velvetleaf [7, 19] | Plant response rating, Velvetleaf [7, 20] | Plant response rating, Velvetleaf [7, 21] | Plant response rating, Nutsedge, Yellow [9, 14] | Plant response rating, Nutsedge, Yellow [9, 15] | Plant response rating, Nutsedge, Yellow [9, 16] | Plant response rating, Nutsedge, Yellow [9, 17] | Plant response rating, Nutsedge, Yellow [9, 18] | Plant response rating, Nutsedge, Yellow [9, 19] | Plant response rating, Nutsedge, Yellow [9, 20]
70: Plant response rating, Corn (corn (Zea mays); [12]) | Plant response rating, Johnsongrass [6, 19]
65: Plant response rating, Bermudagrass [3, 14] | Plant response rating, Kochia (kochia (Kochia scoparia); [15])
98: Plant response rating, Bermudagrass [3, 20] | Plant response rating, Johnsongrass [6, 14] | Plant response rating, Kochia (kochia (Kochia scoparia); [16]) | Plant response rating, Wheat [8, 15] | Plant response rating, Wheat [8, 20]
100: Plant response rating, Corn (corn (Zea mays); [11]) | Plant response rating, Foxtail, Giant [1, 10] | Plant response rating, Foxtail, Giant [1, 11] | Plant response rating, Foxtail, Giant [1, 12] | Plant response rating, Foxtail, Giant [1, 13] | Plant response rating, Ryegrass, Italian [2, 14] | Plant response rating, Ryegrass, Italian [2, 15] | Plant response rating, Ryegrass, Italian [2, 16] | Plant response rating, Ryegrass, Italian [2, 17] | Plant response rating, Ryegrass, Italian [2, 18] | Plant response rating, Ryegrass, Italian [2, 19] | Plant response rating, Ryegrass, Italian [2, 20] | Plant response rating, Ryegrass, Italian [2, 21] | Bermudagrass plant response rating ([3]; 250 g ai/ha) | Plant response rating, Bermudagrass [3, 15] | Plant response rating, Bermudagrass [3, 16] | Plant response rating, Bermudagrass [3, 17] | Plant response rating, Johnsongrass [6, 15] | Plant response rating, Johnsongrass [6, 16] | Plant response rating, Johnsongrass [6, 17] | Plant response rating, Johnsongrass [6, 20] | Plant response rating, Johnsongrass [6, 21] | Plant response rating, Kochia (kochia (Kochia scoparia); [17]) | Plant response rating, Wheat [8, 16] | Plant response rating, Wheat [8, 17] | Plant response rating, Wheat [8, 21]
